Experiments:
Assay type in all cases: in vivo
[1] = tested on: Amaranthus palmeri (AMAPA); assay: Pre-Emergence Test (herbicidal, glasshouse pots); settings: evaluated after 13 days, five-point scale
Zea mays (ZEAMX) [2] = assay: Pre-Emergence Test (herbicidal, glasshouse pots); settings: evaluated after 13 days, five-point scale
Zea mays (ZEAMX) [3] = assay: Post-Emergence Test (herbicidal, glasshouse pots); settings: evaluated after 13 days
Protocol: (§1) Seeds of a variety of test species are sown in standard soil in pots (Setaria faberi (SETFA), Ipomoea hederacea (IPOHE), Echinochloa crus-galli (ECHCG), (Amaranthus retoflexus (AMARE), Zea mays (ZEAMX), and Amaranthus palmeri (AMAPA)). After 8 days cultivation under controlled conditions in a glasshouse (at 24° C./16° C., day/night; 14 hours light; 65% humidity), the plants arm sprayed with an aqueous spray solution derived from the formulation of the technical active ingredient in acetone/water (50:50) solution containing 0.5% Tween 20 (polyoxyethylene sorbitan monolaurate, CAS RN 9005-84-5). Rate of application is shown in g/ha in the tables below. The test plants are then grown in a glasshouse under controlled conditions in a glasshouse (at 24° C./16° C., day/night; 14 hours light; 65% humidity) and watered twice daily. After 13 days the test is evaluated for the percentage damage caused to the plant. The biological activities are shown in the following table on a five-point scale (5=81-100%; 4=61-80%; 3=41-60%; 2=21-40%; 1=0-20%; -=not tested).

[4] = tested on: Echinochloa crus-galli (ECHCG); assay: Post-Emergence Test (herbicidal, glasshouse pots); settings: evaluated after 13 days
Protocol: as §1

[5] = tested on: Amaranthus retoflexus (AMARE); assay: Post-Emergence Test (herbicidal, glasshouse pots); settings: evaluated after 13 days
Protocol: as §1

[6] = tested on: Ipomoea hederacea (IPOHE); assay: Post-Emergence Test (herbicidal, glasshouse pots); settings: evaluated after 13 days
Protocol: as §1

Setaria faberi (SETFA) [7] = assay: Post-Emergence Test (herbicidal, glasshouse pots); settings: rate 1000 g/ha; evaluated after 13 days
Protocol: as §1

[8] = tested on: Amaranthus palmeri (AMAPA); assay: Post-Emergence Test (herbicidal, glasshouse pots); settings: evaluated after 13 days
Protocol: as §1

[9] = tested on: Echinochloa crus-galli (ECHCG); assay: Pre-Emergence Test (herbicidal, glasshouse pots); settings: evaluated after 13 days, five-point scale
Setaria faberi (SETFA) [10] = assay: Pre-Emergence Test (herbicidal, glasshouse pots); settings: evaluated after 13 days, five-point scale
[11] = tested on: Ipomoea hederacea (IPOHE); assay: Pre-Emergence Test (herbicidal, glasshouse pots); settings: evaluated after 13 days, five-point scale
[12] = tested on: Amaranthus retoflexus (AMARE); assay: Pre-Emergence Test (herbicidal, glasshouse pots); settings: evaluated after 13 days, five-point scale

| Structure (SMILES) | percentage damage caused to the plant, AMAPA ([1]; rate 1000 g/ha) | percentage damage caused to the plant, ZEAMX (Zea mays (ZEAMX) [2]; rate 1000 g/ha) | Post-Emergence Test ZEAMX percentage damage (five-point scale) (Zea mays (ZEAMX) [3]; rate 1000 g/ha) | Post-Emergence Test ECHCG percentage damage (five-point scale) ([4]; rate 1000 g/ha) | Post-Emergence Test AMARE percentage damage (five-point scale) ([5]; rate 1000 g/ha) | Post-Emergence Test IPHOE percentage damage (five-point scale) ([6]; rate 1000 g/ha) | Post-Emergence Test AMAPA percentage damage (five-point scale) ([8]; rate 1000 g/ha) | percentage damage caused to the plant, ECHCG ([9]; rate 1000 g/ha) | percentage damage caused to the plant, IPHOE ([11]; rate 1000 g/ha) | percentage damage caused to the plant, AMARE ([12]; rate 1000 g/ha) | also measured |
| --- | --- | --- | --- | --- | --- | --- | --- | --- | --- | --- | --- |
| CCn1c(Oc2cccc(Cl)c2)cc(=O)c(C(=O)O)c1-c1ccc(Cl)c(Cl)c1 [Compound 2, 6-(3-chlorophenoxy)-2-(3,4-dichlorophenyl)-1-ethyl-4-oxo-pyridine-3-carboxylic acid] | 1 (1=0-20%) | 2 (2=21-40%) | 3 (3=41-60%) | 4 (4=61-80%) | 4 (4=61-80%) | 3 (3=41-60%) | 4 (4=61-80%) | 4 (4=61-80%) | 4 (4=61-80%) | 2 (2=21-40%) | Post-Emergence Test SETFA percentage damage (five-point scale) (Setaria faberi (SETFA) [7]): 4 (4=61-80%); percentage damage caused to the plant, SETFA (Setaria faberi (SETFA) [10]; rate 1000 g/ha): 5 (5=81-100%) |
| CCn1c(Nc2ccc(F)cc2)cc(=O)c(C(=O)O)c1-c1ccc(Cl)c(Cl)c1 [Compound 9, 2-(3,4-dichlorophenyl)-1-ethyl-6-(4-fluoroanilino)-4-oxo-pyridine-3-carboxylic acid] |  |  |  |  |  |  |  |  |  |  | percentage damage caused to the plant, AMAPA ([1]; rate 250 g/ha): 1 (1=0-20%); percentage damage caused to the plant, ZEAMX (Zea mays (ZEAMX) [2]; rate 250 g/ha): 0; Post-Emergence Test ZEAMX percentage damage (five-point scale) (Zea mays (ZEAMX) [3]; rate 250 g/ha): 0; Post-Emergence Test ECHCG percentage damage (five-point scale) ([4]; rate 250 g/ha): 1 (1=0-20%); Post-Emergence Test AMARE percentage damage (five-point scale) ([5]; rate 250 g/ha): 2 (2=21-40%); Post-Emergence Test IPHOE percentage damage (five-point scale) ([6]; rate 250 g/ha): 4 (4=61-80%); Post-Emergence Test AMAPA percentage damage (five-point scale) ([8]; rate 250 g/ha): 1 (1=0-20%); percentage damage caused to the plant, ECHCG ([9]; rate 250 g/ha): 0; percentage damage caused to the plant, SETFA (Setaria faberi (SETFA) [10]; rate 250 g/ha): 0; percentage damage caused to the plant, IPHOE ([11]; rate 250 g/ha): 0; percentage damage caused to the plant, AMARE ([12]; rate 250 g/ha): 0 |
| CCn1c(Oc2cncc(Cl)c2)cc(=O)c(C(=O)O)c1-c1ccc(Cl)c(Cl)c1 [Compound 13, 6-[(5-chloro-3-pyridyl)oxy]-2-(3,4-dichlorophenyl)-1-ethyl-4-oxo-pyridine-3-carboxylic acid] | 4 (4=61-80%) | 2 (2=21-40%) | 4 (4=61-80%) | 5 (5=81-100%) | 5 (5=81-100%) | 4 (4=61-80%) | 4 (4=61-80%) | 4 (4=61-80%) | 5 (5=81-100%) | 5 (5=81-100%) |  |
| CCn1c(Oc2cc(F)cc(F)c2)cc(=O)c(C(=O)O)c1-c1ccc(Cl)c(Cl)c1 [Compound 15, 2-(3,4-dichlorophenyl)-6-(3,5-difluorophenoxy)-1-ethyl-4-oxo-pyridine-3-carboxylic acid] | 1 (1=0-20%) | 1 (1=0-20%) | 3 (3=41-60%) | 3 (3=41-60%) | 4 (4=61-80%) | 3 (3=41-60%) | 3 (3=41-60%) | 4 (4=61-80%) | 3 (3=41-60%) | 1 (1=0-20%) |  |
| CCn1c(Oc2cccc(Cl)c2Cl)cc(=O)c(C(=O)O)c1-c1ccc(Cl)c(Cl)c1 [Compound 17, 6-(2,3-dichlorophenoxy)-2-(3,4-dichlorophenyl)-1-ethyl-4-oxo-pyridine-3-carboxylic acid] | 0 | 1 (1=0-20%) | 1 (1=0-20%) | 1 (1=0-20%) | 1 (1=0-20%) | 0 | 1 (1=0-20%) | 0 | 0 | 0 |  |
| CCn1c(Oc2ccc(Cl)c(Cl)c2)cc(=O)c(C(=O)O)c1-c1ccc(Cl)c(Cl)c1 [Compound 18, 6-(3,4-dichlorophenoxy)-2-(3,4-dichlorophenyl)-1-ethyl-4-oxo-pyridine-3-carboxylic acid] | 0 | 0 | 1 (1=0-20%) | 0 | 1 (1=0-20%) | 1 (1=0-20%) | 1 (1=0-20%) | 0 | 0 | 0 |  |
| CCn1c(Oc2ccc(Cl)cc2)cc(=O)c(C(=O)O)c1-c1ccc(Cl)c(Cl)c1 [Compound 19, 6-(4-chlorophenoxy)-2-(3,4-dichlorophenyl)-1-ethyl-4-oxo-pyridine-3-carboxylic acid] | 0 | 1 (1=0-20%) | 3 (3=41-60%) | 3 (3=41-60%) | 5 (5=81-100%) | 3 (3=41-60%) | 4 (4=61-80%) | 4 (4=61-80%) | 1 (1=0-20%) | 0 |  |
| CCn1c(Nc2ccc(C)c(C(F)(F)F)c2)cc(=O)c(C(=O)O)c1-c1ccc(Cl)c(Cl)c1 [Compound 23, 2-(3,4-dichlorophenyl)-1-ethyl-6-[4-methyl-3-(trifluoromethyl)anilino]-4-oxo-pyridine-3-carboxylic acid] | 0 | 0 | 0 | 0 | 1 (1=0-20%) | 0 | 0 | 1 (1=0-20%) | 0 | 1 (1=0-20%) |  |
| CCn1c(Oc2ccc(Cl)cc2OC)cc(=O)c(C(=O)O)c1-c1ccc(Cl)c(Cl)c1 [Compound 26, 6-(4-chloro-2-methoxy-phenoxy)-2-(3,4-dichlorophenyl)-1-ethyl-4-oxo-pyridine-3-carboxylic acid] | 1 (1=0-20%) | 0 | 1 (1=0-20%) | 0 | 1 (1=0-20%) | 1 (1=0-20%) | 1 (1=0-20%) | 0 | 0 | 1 (1=0-20%) |  |
| CCn1c(Nc2ncc(F)cc2F)cc(=O)c(C(=O)O)c1-c1ccc(Cl)c(Cl)c1 [Compound 31, 2-(3,4-dichlorophenyl)-6-[(3,5-difluoro-2-pyridyl)amino]-1-ethyl-4-oxo-pyridine-3-carboxylic acid] | 0 | 1 (1=0-20%) | 0 | 1 (1=0-20%) | 2 (2=21-40%) | 2 (2=21-40%) | 2 (2=21-40%) | 1 (1=0-20%) | 1 (1=0-20%) | 1 (1=0-20%) |  |
| CCn1c(Oc2cccnc2F)cc(=O)c(C(=O)O)c1-c1ccc(Cl)c(Cl)c1 [Compound 34, 2-(3,4-dichlorophenyl)-1-ethyl-6-[(2-fluoro-3-pyridyl)oxy]-4-oxo-pyridine-3-carboxylic acid] | 2 (2=21-40%) | 4 (4=61-80%) | 3 (3=41-60%) | 4 (4=61-80%) | 3 (3=41-60%) | 2 (2=21-40%) | 3 (3=41-60%) | 4 (4=61-80%) | 3 (3=41-60%) | 3 (3=41-60%) |  |

— patent publication US20250324971A1, “HERBICIDAL DERIVATIVES” (SYNGENTA CROP PROTECTION AG, priority 2022, published 2025)
